Reference: patent US11332564B2, “Method to produce stimuli sensitive UV absorbing polymers” (GALAXY SURFACTANTS LTD, priority 2020, dated 2022)

What was measured:
[1] = commercial UV absorbers; cited from earlier work
[2] = Photo-degradation study of cream formulations under UV lamp, 200 h; format: physicochemical; settings: Cream of Example VIII (10% copolymer of Example II)
[3] = as above; format: physicochemical; settings: Cream Example VII (without copolymer of Example II)
Procedure: Example VII is a cream formulation with OMC and Avobenzone is exposed for 200 h using UV light from a UV lamp.

[4] = UV absorption (E1%cm, extinction, λmax) by absorption spectrophotometer; format: physicochemical; settings: for E1%cm: at λmax 310 nm
Procedure: (§1) p-Methoxy cinnamido propyl dimethyl amine was obtained from Galaxy Surfactants Ltd., Mumbai. Vinyl benzyl chloride was purchased from Seimi Chemical Co., Ltd. Japan. N, N-Diethyl acrylamide was obtained from Sigma Aldrich, India. N-isoproyl acrylamide was synthesized as per the literature procedure (Polym. J., Vol. 25, No. 6, pp. 561-567). Surface tension was measured on Kruss tensiometer by Wilhelmy plate method. Intrinsic viscosity was measured by Ubbelohde viscometer. NMR spectroscopy was done on 400 MHz Bruker machine. Infrared spectra were recorded on FTIR from Perkin Elmer (Spectrum 100). UV Varian's, Cary 50 absorption spectrophotometer was used for UV absorption data.

[5] = Surface tension, Kruss tensiometer, Wilhelmy plate method; format: physicochemical
Procedure: as §1

| SMILES | λmax [1] [nm] | Component content, UV exposure 200 h [2] [%] | Component content, Unexposed [2] [%] | Component content, Zero h [2] [%] | Component content, UV exposure 200 h [3] [%] | Component content, Unexposed [3] [%] | Component content, Zero h [3] [%] | E1%cm [4] | E1%cm ([4]; listed as Step (a) of Example I) | Surface tension of 1% aqueous solution [5] [mN/m] | molar extinction coefficient ([4]; at 290 nm) |
| --- | --- | --- | --- | --- | --- | --- | --- | --- | --- | --- | --- |
| COc1ccc(C(=O)CC(=O)c2ccc(C(C)(C)C)cc2)cc1 [Avobenzone] | 360 | 1.5 | 2.0 | 2.0 | 0.1 | 2.0 | 2.0 | – | – | – | – |
| C=Cc1ccc(C[N+](C)(C)CCCNC(=O)/C=C/c2ccc(OC)cc2)cc1 [Formula IVa, p-methoxy cinnamido propyl p-vinyl benzyl dimethyl ammonium chloride] | – | – | – | – | – | – | – | 568 | 463 | 42.6 | – |
| CCCCC(CC)COC(=O)C=Cc1ccc(OC)cc1 (stereo not drawn) [OMC, Octyl methoxy cinnamate] | 302 | 4.5 | 6.0 | 6.0 | 2 | 6.0 | 6 | – | – | – | – |
| COc1ccc(C=CC(=O)NCCCN(C)C)cc1 [Formula IIa, p-methoxy cinnamidopropyl dimethyl amine] | – | – | – | – | – | – | – | – | – | – | 24,000 |
